22 molecules from patent US9238656B2, “Imidazo[4,5-b]pyridine derivatives as ALK and JAK modulators for the treatment of proliferative disorders” (priority 2012, dated 2016) can be followed below.

Structures can show the parent of a compound that is named as a salt. Where two headings read alike, the source gives them in different places.

In experiment [1] the target is baculovirus-expressed ALK (Homo sapiens, UniProt Q9UM73). Put plainly: ALK kinase inhibition, TRF/ELISA. Format: biochemical. The settings on record: read-out: ALK Potency. The method, boiled down:
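Eu-PT66 anti-phosphotyrosine TRF read-out measured phosphorylation of plate-bound GST-PLC-γ (coated at 10 μg/mL). The phosphorylation was driven by 30 ng/mL ALK for 15 minutes at 37° C.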

The target of experiment [2] is baculovirus-expressed JAK2 kinase (Homo sapiens, UniProt O60674). Put plainly: biochemical. The method, boiled down:
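IC50 derived by variable-slope sigmoidal fit of percent inhibition against log compound concentration. Baculovirus-expressed JAK2 (15 ng/mL) phosphorylated a plate-bound biotinylated 15-mer peptide for 20 min at room temperature; detection by time-resolved fluorescence.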

The mark [3] stands for this setting: 0.2 μM ATP, read-out: JAK2 Potency.

Sequence of baculovirus-expressed ALK (Q9UM73 19-1620): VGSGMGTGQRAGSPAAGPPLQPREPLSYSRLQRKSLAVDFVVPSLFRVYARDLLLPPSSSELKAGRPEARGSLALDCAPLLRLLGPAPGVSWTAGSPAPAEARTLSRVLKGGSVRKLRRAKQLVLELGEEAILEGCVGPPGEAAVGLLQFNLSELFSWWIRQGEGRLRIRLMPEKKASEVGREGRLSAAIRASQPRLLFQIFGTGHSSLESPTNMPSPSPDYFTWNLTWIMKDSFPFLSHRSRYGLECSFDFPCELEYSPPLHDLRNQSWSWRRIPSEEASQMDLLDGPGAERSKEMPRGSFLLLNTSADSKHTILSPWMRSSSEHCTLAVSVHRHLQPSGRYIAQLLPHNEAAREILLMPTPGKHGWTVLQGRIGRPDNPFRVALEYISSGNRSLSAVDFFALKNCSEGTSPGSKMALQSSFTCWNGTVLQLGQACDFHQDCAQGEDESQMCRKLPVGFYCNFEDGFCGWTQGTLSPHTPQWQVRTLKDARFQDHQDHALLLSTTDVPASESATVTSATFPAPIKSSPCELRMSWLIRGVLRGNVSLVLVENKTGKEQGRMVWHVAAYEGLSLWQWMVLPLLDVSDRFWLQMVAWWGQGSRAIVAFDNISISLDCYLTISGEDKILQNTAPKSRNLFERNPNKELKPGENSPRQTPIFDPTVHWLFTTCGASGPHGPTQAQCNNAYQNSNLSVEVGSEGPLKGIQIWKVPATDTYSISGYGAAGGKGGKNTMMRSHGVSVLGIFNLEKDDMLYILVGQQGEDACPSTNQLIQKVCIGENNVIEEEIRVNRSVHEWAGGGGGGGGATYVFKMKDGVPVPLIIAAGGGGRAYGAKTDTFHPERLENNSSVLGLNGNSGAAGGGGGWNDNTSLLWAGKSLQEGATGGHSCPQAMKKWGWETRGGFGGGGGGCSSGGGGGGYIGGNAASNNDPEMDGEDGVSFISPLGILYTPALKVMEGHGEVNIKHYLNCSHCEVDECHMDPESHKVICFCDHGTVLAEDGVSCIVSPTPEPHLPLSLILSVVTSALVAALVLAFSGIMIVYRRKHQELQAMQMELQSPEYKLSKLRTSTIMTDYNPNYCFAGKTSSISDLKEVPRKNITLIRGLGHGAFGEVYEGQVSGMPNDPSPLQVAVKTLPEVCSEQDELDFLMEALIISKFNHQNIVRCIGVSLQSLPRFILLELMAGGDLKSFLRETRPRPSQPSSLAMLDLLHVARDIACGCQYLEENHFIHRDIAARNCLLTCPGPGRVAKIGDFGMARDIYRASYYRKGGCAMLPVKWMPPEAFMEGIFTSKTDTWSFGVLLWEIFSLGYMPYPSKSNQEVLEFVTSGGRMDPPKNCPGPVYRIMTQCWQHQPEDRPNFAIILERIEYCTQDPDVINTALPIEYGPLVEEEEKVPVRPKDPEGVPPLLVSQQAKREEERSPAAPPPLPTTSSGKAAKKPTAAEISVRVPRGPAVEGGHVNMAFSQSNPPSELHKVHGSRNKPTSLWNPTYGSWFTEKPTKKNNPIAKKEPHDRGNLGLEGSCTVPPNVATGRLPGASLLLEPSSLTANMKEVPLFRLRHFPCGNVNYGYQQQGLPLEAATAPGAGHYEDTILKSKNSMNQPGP
Sequence of baculovirus-expressed JAK2 kinase (O60674 whole entry): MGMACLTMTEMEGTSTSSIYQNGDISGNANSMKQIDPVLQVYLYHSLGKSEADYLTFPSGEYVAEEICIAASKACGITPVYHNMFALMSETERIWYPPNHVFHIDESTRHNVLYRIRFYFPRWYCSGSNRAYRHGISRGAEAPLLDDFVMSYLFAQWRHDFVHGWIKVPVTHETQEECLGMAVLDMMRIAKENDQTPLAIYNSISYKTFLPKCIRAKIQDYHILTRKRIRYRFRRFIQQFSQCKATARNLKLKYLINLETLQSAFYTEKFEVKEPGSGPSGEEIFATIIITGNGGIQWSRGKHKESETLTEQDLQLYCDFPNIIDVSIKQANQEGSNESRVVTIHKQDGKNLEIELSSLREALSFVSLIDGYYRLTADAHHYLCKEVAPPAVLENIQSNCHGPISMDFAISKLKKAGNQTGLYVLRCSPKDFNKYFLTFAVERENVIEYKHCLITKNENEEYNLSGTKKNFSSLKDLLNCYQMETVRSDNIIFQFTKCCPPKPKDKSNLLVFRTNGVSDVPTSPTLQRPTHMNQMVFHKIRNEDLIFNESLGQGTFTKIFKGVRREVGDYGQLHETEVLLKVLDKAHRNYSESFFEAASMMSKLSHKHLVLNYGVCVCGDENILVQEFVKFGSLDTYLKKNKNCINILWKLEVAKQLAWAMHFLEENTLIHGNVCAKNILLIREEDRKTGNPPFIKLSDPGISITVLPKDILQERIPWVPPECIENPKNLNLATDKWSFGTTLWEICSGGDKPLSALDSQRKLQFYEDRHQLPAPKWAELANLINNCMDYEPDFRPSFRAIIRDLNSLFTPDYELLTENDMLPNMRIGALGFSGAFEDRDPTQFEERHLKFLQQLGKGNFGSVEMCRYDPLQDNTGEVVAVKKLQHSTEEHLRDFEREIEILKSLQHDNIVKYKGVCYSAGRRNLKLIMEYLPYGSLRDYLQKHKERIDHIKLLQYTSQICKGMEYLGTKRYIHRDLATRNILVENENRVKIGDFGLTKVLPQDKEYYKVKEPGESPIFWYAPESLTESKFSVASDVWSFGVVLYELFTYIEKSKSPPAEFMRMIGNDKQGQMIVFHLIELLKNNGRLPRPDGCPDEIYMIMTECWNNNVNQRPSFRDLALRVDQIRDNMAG

As for `CN(C)CCOc1ccc(-c2nc3c(N[C@H]4[C@@H](C(N)=O)[C@@H]5C=C[C@H]4C5)c(Cl)cnc3[nH]2)cc1` [Compound CCXLIX, (1S,2S,3R,4R)-3-(6-chloro-2-(4-(2-(dimethylamino)ethoxy)phenyl)-3H-imidazo[4,5-b]pyridin-7-ylamino)bicyclo[2.2.1]hept-5-ene-2-carboxamide], the IC50 in experiment [1] and in experiment [2] (setting [3]) was less than 0.1 µM throughout.
As to `NC(=O)[C@@H]1[C@H](Nc2c(Cl)cnc3[nH]c(-c4ccc(N5CCOCC5)cc4)nc23)[C@H]2CC[C@@H]1O2` [Compound CCIV, (1S,2R,3S,4R)-3-(6-chloro-2-(4-morpholinophenyl)-3H-imidazo[4,5-b]pyridin-7-ylamino)-7-oxabicyclo[2.2.1]heptane-2-carboxamide], the IC50 in experiment [1] is 1 to 10 µM; in experiment [2] (setting [3]), less than 0.1 µM.
As to `COc1ccc(CN2CCOCC2)cc1-c1nc2c(N[C@@H]3CCCC[C@H]3NS(C)(=O)=O)c(Cl)cnc2[nH]1` [Compound LXXIV, N-{(1R,2R)-2-[6-Chloro-2-(2-methoxy-5-morpholin-4-ylmethyl-phenyl)-3H-imidazo[4,5-b]pyridine-7-ylamino]-cyclohexyl}-methanesulfonamide], the IC50 in experiment [1] was 0.1 to 1 µM; in experiment [2] (setting [3]) it was greater than 10 µM.
In the same order, the values of `COc1cc(N2CCOCC2)ccc1-c1nc2c(NC34CCC(C)(C(O)C3)C4(C)C)c(Cl)cnc2[nH]1` (centres unmarked) [Compound CCIII, 4-(6-chloro-2-(2-methoxy-4-morpholinophenyl)-3H-imidazo[4,5-b]pyridin-7-ylamino)-1,7,7-trimethylbicyclo[2.2.1]heptan-2-ol] are 0.1 to 1 µM and 0.1 to 1 µM.
Turning to `Cc1nn(C)c(N2CCOCC2)c1-c1nc2c(N[C@H]3[C@@H](C(N)=O)[C@@H]4C=C[C@H]3C4)c(Cl)cnc2[nH]1` [Compound CXXII, (1S,2S,3R,4R)-3-[6-Chloro-2-(1,3-dimethyl-5-morpholin-4-yl-1H-pyrazol-4-yl)-3H-imidazo[4,5-b]pyridin-7-ylamino]-bicyclo[2.2.1]hept-5-ene-2-carboxylic acid amide], the IC50 in experiment [1] and in experiment [2] (setting [3]) was 1 to 10 µM throughout.
Consider `COc1cc(CN(C)C)ccc1-c1nc2c(N[C@H]3[C@@H](C(N)=O)[C@@H]4C=C[C@H]3C4)c(Cl)cnc2[nH]1` [Compound XLVI, (1S,2S,3R,4R)-3-[6-Chloro-2-(4-dimethylaminomethyl-2-methoxyphenyl)-3H-imidazo[4,5-b]pyridine-7-ylamino)-bicyclo[2.2.1]hept-5-ene-2-carboxylic acid amide, trifluoroacetic acid salt], for which the IC50 in experiment [1] and in experiment [2] (setting [3]) was less than 0.1 µM in each case.
On to `COc1cc(N2CCOCC2)ccc1-c1nc2c(N[C@@H]3CCCC[C@H]3NS(C)(=O)=O)c(Cl)cnc2[nH]1` [Compound LXXII, N-{(1R,2R)-2-[6-Chloro-2-(2-methoxy-4-morpholin-4-yl-phenyl)-3H-imidazo[4,5-b]pyridine-7-ylamino]-cyclohexyl}-methanesulfonamide], for which the IC50 in experiment [1] was less than 0.1 µM; in experiment [2] (setting [3]), greater than 10 µM.
Regarding `CN1CCN(C(=O)c2cccc(-c3nc4c(N[C@H]5[C@@H](C(N)=O)[C@@H]6C=C[C@H]5C6)c(Cl)cnc4[nH]3)c2)CC1` [Compound CCXXI, (1S,2S,3R,4R)-3-(6-chloro-2-(3-(4-methylpiperazine-1-carbonyl)phenyl)-3H-imidazo[4,5-b]pyridin-7-ylamino)bicyclo[2.2.1]hept-5-ene-2-carboxamide], the figures for the IC50 in experiment [1] and in experiment [2] (setting [3]) were 0.1 to 1 µM and less than 0.1 µM, respectively.
In the case of `NC(=O)[C@@H]1[C@H](Nc2c(Cl)cnc3[nH]c(-c4ccc(N5CCOCC5)cc4Cl)nc23)[C@H]2C=C[C@@H]1C2` [Compound CXX, (1S,2S,3R,4R)-3-[6-Chloro-2-(2-chloro-4-morpholin-4-yl-phenyl)-3H-imidazo[4,5-b]pyridin-7-ylamino]-bicyclo[2.2.1]hept-5-ene-2-carboxylic acid amide], the IC50 in experiment [1] and in experiment [2] (setting [3]) was less than 0.1 µM throughout.
Take `NC(=O)[C@@H]1[C@H](Nc2c(Br)cnc3[nH]c(-c4ccc(F)cc4)nc23)[C@H]2C=C[C@@H]1C2` [Compound CXXXIII, (1S,2S,3R,4R)-3-[6-Bromo-2-(4-fluoro-phenyl)-3H-imidazo[4,5-b]pyridin-7-ylamino]-bicyclo[2.2.1]hept-5-ene-2-carboxylic acid amide]: the IC50 in experiment [1] is 0.1 to 1 µM; in experiment [2] (setting [3]), less than 0.1 µM.
On to `NC(=O)[C@@H]1[C@H](Nc2c(Br)cnc3[nH]c(-c4ccc(C(F)(F)F)nc4)nc23)[C@H]2C=C[C@@H]1C2` [Compound CXXXIX, (1S,2S,3R,4R)-3-[6-Bromo-2-(6-trifluoromethyl-pyridin-3-yl)-3H-imidazo[4,5-b]pyridin-7-ylamino]-bicyclo[2.2.1]hept-5-ene-2-carboxylic acid amide], for which the IC50 was 1 to 10 µM in experiment [1] and less than 0.1 µM in experiment [2] (setting [3]).
Turning to `NC(=O)[C@@H]1[C@H](Nc2c(Cl)cnc3[nH]c(-c4ccccc4Cl)nc23)[C@H]2C=C[C@@H]1C2` [Compound CXLVIII, (1S,2S,3R,4R)-3-[6-Chloro-2-(2-chloro-phenyl)-3H-imidazo[4,5-b]pyridin-7-ylamino]-bicyclo[2.2.1]hept-5-ene-2-carboxylic acid amide], the IC50 in experiment [1] was 0.1 to 1 µM; in experiment [2] (setting [3]) it was less than 0.1 µM.
Take `COc1ccc(-c2nc3c(N[C@H]4[C@@H](C(N)=O)[C@@H]5C=C[C@H]4C5)c(Cl)cnc3[nH]2)c(C2CCN(C[C@H](C)O)CC2)c1` [Compound XXXII, (1S,2S,3R,4R)-3-(6-Chloro-2-{2-[1-((S)-2-hydroxypropyl)-piperidin-4-yl]-4-methoxy-phenyl}-3H-imidazo[4,5-b]pyridin-7-ylamino)-bicyclo[2.2.1]hept-5-ene-2-carboxylic acid amide]: the IC50 in experiment [1] and in experiment [2] (setting [3]) was 1 to 10 µM throughout.
Take `NC(=O)[C@@H]1[C@H](Nc2c(Cl)cnc3[nH]c(C4CCCNC4)nc23)[C@H]2C=C[C@@H]1C2` (single isomer, unassigned) [XIII]: the IC50 in experiment [1] and in experiment [2] (setting [3]) was greater than 10 µM each time.
In the case of `CC(C)NC(=O)[C@@H]1[C@H](Nc2c(Cl)cnc3[nH]c(-c4sc(N5CCCC5)nc4Cl)nc23)[C@H]2C=C[C@@H]1C2` [Compound CLXV, (1S,2S,3R,4R)-3-[6-Chloro-2-(4-chloro-2-pyrrolidin-1-yl-thiazol-5-yl)-3H-imidazo[4,5-b]pyridin-7-ylamino]-bicyclo[2.2.1]hept-5-ene-2-carboxylic acid isopropylamide], the values for the IC50 in experiment [1] and in experiment [2] (setting [3]) were 0.1 to 1 µM and 1 to 10 µM, respectively.
Consider `CC(=O)N1CCN(Cc2ccc(-c3nc4c(N[C@H]5[C@@H](C(N)=O)[C@@H]6C=C[C@H]5C6)c(Br)cnc4[nH]3)cc2)CC1` [Compound CLVI, (1S,2S,3R,4R)-3-{2-[4-(4-Acetyl-piperazin-1-ylmethyl)-phenyl]-6-bromo-3H-imidazo[4,5-b]pyridin-7-ylamino}-bicyclo[2.2.1]hept-5-ene-2-carboxylic acid amide], for which the IC50 in experiment [1] and in experiment [2] (setting [3]) was less than 0.1 µM throughout.
Turning to `COc1cc(N2CCOCC2)ccc1-c1nc2c(N3C[C@@H]4C[C@H]3CN4)c(Cl)cnc2[nH]1` [Compound XXXVII, 6-Chloro-7-(1S,4S)-2,5-diaza-bicyclo[2.2.1]hept-2-yl-2-(2-methoxy-4-morpholin-4-yl-phenyl)-3H-imidazo[4,5-b]pyridine hydrochloride], the IC50 in experiment [1] is greater than 10 µM; in experiment [2] (JAK2 Potency), 1 to 10 µM.
For the molecule `COc1cc(CN2CCOCC2)ccc1-c1nc2c(N[C@H]3[C@@H](CO)[C@@H]4C=C[C@H]3C4)c(Cl)cnc2[nH]1` [Compound LII, {(diexo)-3-[6-Chloro-2-(2-methoxy-4-morpholin-4-ylmethylphenyl)-3H-imidazo[4,5-b]pyridine-7-ylamino]-bicyclo[2.2.1]hept-5-en-2-yl}-methanol], the IC50 in experiment [1] was less than 0.1 µM; in experiment [2] (setting [3]) it was 0.1 to 1 µM.
With `NC(=O)[C@@H]1[C@H](Nc2c(Cl)cnc3[nH]c(-c4cccc(O)c4)nc23)[C@H]2C=C[C@@H]1C2` [Compound CCXXXIII, (1S,2S,3R,4R)-3-(6-chloro-2-(3-hydroxyphenyl)-3H-imidazo[4,5-b]pyridin-7-ylamino)pyridin[2.2.1]hept-5-ene-2-carboxamide], the IC50 in experiment [1] is 0.1 to 1 µM; in experiment [2] (setting [3]), less than 0.1 µM.
In the case of `NC(=O)[C@@H]1[C@H](Nc2c(Cl)cnc3[nH]c(-c4cccc(OCC(=O)O)c4)nc23)[C@H]2C=C[C@@H]1C2` [Compound CCLXIII, 2-(3-(7-((1R,2R,3S,4S)-3-carbamoylbicyclo[2.2.1]hept-5-en-2-ylamino)-6-chloro-3H-imidazo[4,5-b]pyridin-2-yl)phenoxy)acetic acid], the IC50 in experiment [1] was 0.1 to 1 µM; in experiment [2] (setting [3]) it was less than 0.1 µM.
Consider `CN(C)c1nc(Cl)c(-c2nc3c(N[C@H]4[C@@H](C(N)=O)[C@@H]5C=C[C@H]4C5)c(Br)cnc3[nH]2)s1` [Compound CLV, (1S,2S,3R,4R)-3-[6-Bromo-2-(4-chloro-2-dimethylamino-thiazol-5-yl)-3H-imidazo[4,5-b]pyridin-7-ylamino]-bicyclo[2.2.1]hept-5-ene-2-carboxylic acid amide], for which the IC50 in experiment [1] and in experiment [2] (setting [3]) was less than 0.1 µM throughout.
Take `NC(=O)CN1CCC(n2cc(-c3nc4c(N[C@H]5[C@@H](C(N)=O)[C@@H]6C=C[C@H]5C6)c(Cl)cnc4[nH]3)cn2)CC1` [Compound LXVI, (1S,2S,3R,4R)-3-{2-[1-(1-Carbamoylmethyl-piperidin-4-yl)-1H-pyrazol-4-yl]-6-chloro-3H-imidazo[4,5-b]pyridine-7-ylamino}-bicyclo[2.2.1]hept-5-ene-2-carboxylic acid amide, trifluoroacetic acid salt]: the IC50 in experiment [1] is 0.1 to 1 µM; in experiment [2] (setting [3]), less than 0.1 µM.
